Reference: patent US9334264B2, “NAMPT inhibitors” (AbbVie Inc., priority 2012, dated 2016)

Assays:
[1] = molecular target: NAMPT (human, recombinant, C-terminally His-tagged) (Homo sapiens, UniProt P43490); assay: Time-Resolved Fluorescence Resonance Energy Transfer (TR-FRET) Binding Assay of NAMPT; conditions: absence of substrates; 6.8 nM NAMPT, 200 nM probe, equilibrated 3 hours
Procedure: Determination of the utility of compounds having Formula (I) as binders to and inhibitors of NAMPT was performed using Time-Resolved Fluorescence Resonance Energy Transfer (TR-FRET) binding assays.
Time-Resolved Fluorescence Resonance Energy Transfer (TR-FRET) Binding Assay of NAMPT
Test compounds were serially diluted (typically 11 half log dilutions) in neat DMSO to 50× final concentrations prior to dilution with assay buffer (50 mM HEPES (NaOH), pH 7.5, 100 mM NaCl, 10 mM MgCl2, 1 mM DTT, 1% Glycerol) to 3× and 6% DMSO. Six μL were transferred to 384-well low-volume plates (Owens Corning #3673). To this, 12 μL of a 1.5× solution containing enzyme, probe and antibody were added. Final concentrations in the 18 μL reactions were 1× assay buffer, 2% DMSO, 6.8 nM NAMPT (human, recombinant, C-terminally His-tagged), 200 nM probe (a potent nicotinamide-competitive inhibitor conjugated to Oregon Green 488) and 1 nM Tb-anti-His antibody (Invitrogen #PV5895). Reactions were equilibrated at room temperature for 3 hours prior to reading on an Envision multi-label plate reader (Perkin Elmer; Ex=337 nm, Em=520 and 495 nm). Time-resolved FRET ratios (Em520/Em495) were normalized to controls, plotted as a function of compound concentration and fit with the four-parameter logistic equation to determine IC50s.

[2] = molecular target: NAMPT (Homo sapiens, UniProt P43490); assay: Time-Resolved Fluorescence Resonance Energy Transfer (TR-FRET) Binding Assay of NAMPT with PRPP; conditions: 200 μM PRPP and 2.5 mM ATP; 2 nM NAMPT, 2 nM probe, equilibrated 16 hours
Sequence of NAMPT (P43490 whole entry): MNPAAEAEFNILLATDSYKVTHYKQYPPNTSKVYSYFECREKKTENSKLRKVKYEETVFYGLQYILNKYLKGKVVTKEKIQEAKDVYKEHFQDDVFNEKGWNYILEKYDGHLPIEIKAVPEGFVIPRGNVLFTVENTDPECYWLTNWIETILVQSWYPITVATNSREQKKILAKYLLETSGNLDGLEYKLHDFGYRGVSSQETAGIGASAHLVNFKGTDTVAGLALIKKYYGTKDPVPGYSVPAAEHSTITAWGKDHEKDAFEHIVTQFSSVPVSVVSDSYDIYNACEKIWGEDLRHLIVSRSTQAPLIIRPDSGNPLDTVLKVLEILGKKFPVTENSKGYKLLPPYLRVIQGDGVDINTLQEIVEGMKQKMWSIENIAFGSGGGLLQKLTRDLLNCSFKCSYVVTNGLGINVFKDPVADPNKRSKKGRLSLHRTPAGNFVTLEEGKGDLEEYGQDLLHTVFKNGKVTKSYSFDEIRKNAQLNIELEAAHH
Procedure: Time-Resolved Fluorescence Resonance Energy Transfer (TR-FRET) Binding Assay of NAMPT with PRPP
Compound handling and data processing were identical to the assay in the absence of substrates (above). Final concentrations were 1× assay buffer, 2% DMSO, 2 nM NAMPT, 2 nM probe, 1 nM Tb-anti-His antibody (Invitrogen #PV5895), 200 μM PRPP and 2.5 mM ATP. Reactions were equilibrated for 16 hours prior to measurement to allow for potential enzymatic modification of test compounds.

Sequence of NAMPT (human, recombinant, C-terminally His-tagged) (P43490 whole entry): as above

SMILES | IC50 [1] | IC50 [2]
O=C(NCCCn1ccnc1)c1cnc(N(Cc2ccc(Cl)cn2)C(=O)C2CCOC2)s1 (stereo not drawn) [Example 206, 2-{[(5-chloropyridin-2-yl)methyl](tetrahydrofuran-3-ylcarbonyl)amino}-N-[3-(1H-imidazol-1-yl)propyl]-1,3-thiazole-5-carboxamide] | 5.63 µM | 0.000633 µM
COCCC(=O)N(Cc1c(F)cccc1F)c1ncc(C(=O)NCCCn2ccnc2)s1 [Example 112, 2-[(2,6-difluorobenzyl)(3-methoxypropanoyl)amino]-N-[3-(1H-imidazol-1-yl)propyl]-1,3-thiazole-5-carboxamide] | 3.68 µM | 0.00208 µM
COCCC(=O)N(Cc1cccc(C)c1)c1ncc(C(=O)NCCCn2ccnc2)s1 [Example 120, N-[3-(1H-imidazol-1-yl)propyl]-2-[(3-methoxypropanoyl)(3-methylbenzyl)amino]-1,3-thiazole-5-carboxamide] | 3.78 µM | 0.00229 µM
O=C(NCCCn1ccnc1)c1cnc(N(Cc2ccc(F)cc2)C(=O)CN2CCOCC2)s1 [Example 40, 2-[(4-fluorobenzyl)(morpholin-4-ylacetyl)amino]-N-[3-(1H-imidazol-1-yl)propyl]-1,3-thiazole-5-carboxamide] | 2.2 µM | 0.00199 µM
CCN1CC(CN(C(=O)CCOC)c2ncc(C(=O)NCCCn3ccnc3)s2)CC1=O (stereo not drawn) [Example 193, 2-{[(1-ethyl-5-oxopyrrolidin-3-yl)methyl](3-methoxypropanoyl)amino}-N-[3-(1H-imidazol-1-yl)propyl]-1,3-thiazole-5-carboxamide] | 6.06 µM | 0.000755 µM
COCCC(=O)N(CCc1ccccn1)c1ncc(C(=O)NCCCn2ccnc2)s1 [Example 101, N-[3-(1H-imidazol-1-yl)propyl]-2-{(3-methoxypropanoyl)[2-(pyridin-2-yl)ethyl]amino}-1,3-thiazole-5-carboxamide acetate (1:1)] | 5.62 µM | 0.00284 µM
CC(=O)NCCNC(=O)N(Cc1ccc(C#N)cc1)c1ncc(C(=O)NCCCn2ccnc2)s1 [Example 145, 2-[{[2-(acetylamino)ethyl]carbamoyl}(4-cyanobenzyl)amino]-N-[3-(1H-imidazol-1-yl)propyl]-1,3-thiazole-5-carboxamide] | > 10 µM | 0.107 µM
COCCC(=O)N(CCCN1CCCC1=O)c1ncc(C(=O)NCCCn2ccnc2)s1 [Example 197, N-[3-(1H-imidazol-1-yl)propyl]-2-{(3-methoxypropanoyl)[3-(2-oxopyrrolidin-1-yl)propyl]amino}-1,3-thiazole-5-carboxamide] | 9.21 µM | 0.000251 µM
O=C(NCCCn1ccnc1)c1cnc(N(CCCN2CCCCC2)Cc2ccc(F)cc2)s1 [Example 8, 2-{(4-fluorobenzyl)[3-(piperidin-1-yl)propyl]amino}-N-[3-(1H-imidazol-1-yl)propyl]-1,3-thiazole-5-carboxamide] | 3.16 µM | 0.29 µM
COCCC(=O)N(CCOC)c1ncc(C(=O)NCCCn2ccnc2)s1 [Example 175, N-[3-(1H-imidazol-1-yl)propyl]-2-[(2-methoxyethyl)(3-methoxypropanoyl)amino]-1,3-thiazole-5-carboxamide] | 1.15 µM | 0.0006 µM
COCC(=O)N(CCC(C)C)c1ncc(C(=O)NCCCn2ccnc2)s1 [Example 151, N-[3-(1H-imidazol-1-yl)propyl]-2-[(methoxyacetyl)(3-methylbutyl)amino]-1,3-thiazole-5-carboxamide] | 0.219 µM | 0.000412 µM
COCCC(=O)N(CCc1ccc(Cl)cc1)c1ncc(C(=O)NCCCn2ccnc2)s1 [Example 103, 2-{[2-(4-chlorophenyl)ethyl](3-methoxypropanoyl)amino}-N-[3-(1H-imidazol-1-yl)propyl]-1,3-thiazole-5-carboxamide acetate (1:1)] | 0.709 µM | 0.00306 µM
CCOCCNC(=O)N(Cc1ccc(F)cc1)c1ncc(C(=O)NCCCn2ccnc2)s1 [Example 83, 2-{[(2-ethoxyethyl)carbamoyl](4-fluorobenzyl)amino}-N-[3-(1H-imidazol-1-yl)propyl]-1,3-thiazole-5-carboxamide] | 2.89 µM | 0.000998 µM
CC1(C)CN(C(=O)N(Cc2ccc(F)cc2)c2ncc(C(=O)NCCCn3ccnc3)s2)CCO1 [Example 72, N-(4-fluorobenzyl)-N-(5-{[3-(1H-imidazol-1-yl)propyl]carbamoyl}-1,3-thiazol-2-yl)-2,2-dimethylmorpholine-4-carboxamide] | > 10 µM | 0.00399 µM
COCCC(=O)N(CCc1cccc(F)c1)c1ncc(C(=O)NCCCn2ccnc2)s1 [Example 104, 2-{[2-(3-fluorophenyl)ethyl](3-methoxypropanoyl)amino}-N-[3-(1H-imidazol-1-yl)propyl]-1,3-thiazole-5-carboxamide acetate (1:1)] | 0.445 µM | 0.00131 µM
CC(C)CCN(Cc1ccc(C#N)cc1)c1ncc(C(=O)NCCCn2ccnc2)s1 [Example 60, 2-[(4-cyanobenzyl)(3-methylbutyl)amino]-N-[3-(1H-imidazol-1-yl)propyl]-1,3-thiazole-5-carboxamide] | > 10 µM | 0.00497 µM
COCCC(=O)N(Cc1cnccc1C)c1ncc(C(=O)NCCCn2ccnc2)s1 [Example 97, N-[3-(1H-imidazol-1-yl)propyl]-2-{(3-methoxypropanoyl)[(4-methylpyridin-3-yl)methyl]amino}-1,3-thiazole-5-carboxamide] | > 10 µM | 0.00589 µM
CC(C)CCNC(=O)N(Cc1ccc(F)cc1)c1ncc(C(=O)NCCCn2ccnc2)s1 [Example 63, 2-{(4-fluorobenzyl)[(3-methylbutyl)carbamoyl]amino}-N-[3-(1H-imidazol-1-yl)propyl]-1,3-thiazole-5-carboxamide] | 2.25 µM | 0.000693 µM
N#Cc1ccc(CN(C(=O)CC2CCOC2)c2ncc(C(=O)NCCCn3ccnc3)s2)cc1 (stereo not drawn) [Example 61, 2-[(4-cyanobenzyl)(tetrahydrofuran-3-ylacetyl)amino]-N-[3-(1H-imidazol-1-yl)propyl]-1,3-thiazole-5-carboxamide] | 1.9 µM | 0.00178 µM
CC(C)N1CCN(CCN(Cc2ccc(F)cc2)c2ncc(C(=O)NCCCn3ccnc3)s2)CC1 [Example 10, 2-[(4-fluorobenzyl){2-[4-(propan-2-yl)piperazin-1-yl]ethyl}amino]-N-[3-(1H-imidazol-1-yl)propyl]-1,3-thiazole-5-carboxamide] | 0.281 µM | 0.0196 µM
N#Cc1ccc(CN(C(=O)NCCC(N)=O)c2ncc(C(=O)NCCCn3ccnc3)s2)cc1 [Example 140, 2-{[(3-amino-3-oxopropyl)carbamoyl](4-cyanobenzyl)amino}-N-[3-(1H-imidazol-1-yl)propyl]-1,3-thiazole-5-carboxamide] | > 10 µM | 0.0223 µM
CC1CCN(CC(=O)N(Cc2ccc(F)cc2)c2ncc(C(=O)NCCCn3ccnc3)s2)CC1 [Example 28, 2-{(4-fluorobenzyl)[(4-methylpiperidin-1-yl)acetyl]amino}-N-[3-(1H-imidazol-1-yl)propyl]-1,3-thiazole-5-carboxamide] | 7.02 µM | 0.000833 µM
CCN(CC)CCNC(=O)N(Cc1ccc(C#N)cc1)c1ncc(C(=O)NCCCn2ccnc2)s1 [Example 146, 2-[(4-cyanobenzyl){[2-(diethylamino)ethyl]carbamoyl}amino]-N-[3-(1H-imidazol-1-yl)propyl]-1,3-thiazole-5-carboxamide] | > 10 µM | 0.098 µM
O=C(NCCCn1ccnc1)c1cnc(N(Cc2ccc(F)cc2)C(=O)c2ccc(F)cc2)s1 [Example 13, 2-[(4-fluorobenzoyl)(4-fluorobenzyl)amino]-N-[3-(1H-imidazol-1-yl)propyl]-1,3-thiazole-5-carboxamide] | 1.75 µM | 0.000403 µM
CCOC(=O)CC(NC(=O)N(Cc1ccc(C#N)cc1)c1ncc(C(=O)NCCCn2ccnc2)s1)C(C)C (stereo not drawn) [Example 162, ethyl 3-{[(4-cyanobenzyl)(5-{[3-(1H-imidazol-1-yl)propyl]carbamoyl}-1,3-thiazol-2-yl)carbamoyl]amino}-4-methylpentanoate] | 3.33 µM | 0.187 µM
CNC(=O)CN(Cc1ccc(F)cc1)c1ncc(C(=O)NCCCn2ccnc2)s1 [Example 18, 2-{(4-fluorobenzyl)[2-(methylamino)-2-oxoethyl]amino}-N-[3-(1H-imidazol-1-yl)propyl]-1,3-thiazole-5-carboxamide] | 4.82 µM | 0.814 µM
CC(O)CNC(=O)N(Cc1ccc(C#N)cc1)c1ncc(C(=O)NCCCn2ccnc2)s1 (stereo not drawn) [Example 128, 2-{(4-cyanobenzyl)[(2-hydroxypropyl)carbamoyl]amino}-N-[3-(1H-imidazol-1-yl)propyl]-1,3-thiazole-5-carboxamide] | > 10 µM | 0.000727 µM
